According to PubChem BioAssay (NCI):
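Following 48 hours of exposure in 96-well plates, responses at five concentrations were used to interpolate endpoints linearly. GI50 is the concentration that inhibits growth by half. TGI marks complete inhibition of growth.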

Key:
Assay in all cases: NCI-60 cell line screen, 48 h; in the data active = GI50 below about 0.43 µM; inactive = the rest
[1] = tested on: 786-0 renal
[2] = tested on: A498 renal
[3] = tested on: A549 NSCLC
[4] = tested on: ACHN renal
[5] = tested on: BT-549 breast
[6] = tested on: CAKI-1 renal
[7] = tested on: CCRF-CEM leukemia
[8] = tested on: COLO 205 colon
[9] = tested on: DU-145 prostate
[10] = tested on: HCC-2998 colon
[11] = tested on: HCT-116 colon
[12] = tested on: HCT-15 colon
[13] = tested on: HL-60(TB) leukemia
[14] = tested on: HOP-62 NSCLC
[15] = tested on: HOP-92 NSCLC
[16] = tested on: HS 578T breast
[17] = tested on: HT29 colon
[18] = tested on: IGROV1 ovarian
[19] = tested on: K-562 leukemia
[20] = tested on: KM12 colon
[21] = tested on: LOX IMVI melanoma
[22] = tested on: M14 melanoma
[23] = tested on: MALME-3M melanoma
[24] = tested on: MCF7 breast
[25] = tested on: MDA-MB-231 breast
[26] = tested on: MDA-MB-435
[27] = tested on: MOLT-4 leukemia
[28] = tested on: NCI-H226 lung
[29] = tested on: NCI-H23 lung
[30] = tested on: NCI-H460 lung
[31] = tested on: NCI-H522 lung
[32] = tested on: NCI/ADR-RES ovarian
[33] = tested on: OVCAR-3 ovarian
[34] = tested on: OVCAR-4 ovarian
[35] = tested on: OVCAR-5 ovarian
[36] = tested on: OVCAR-8 ovarian
[37] = tested on: PC-3 prostate
[38] = tested on: RPMI-8226 leukemia
[39] = tested on: RXF 393 renal
[40] = tested on: SF-268 CNS
[41] = tested on: SF-295 CNS
[42] = tested on: SF-539 CNS
[43] = tested on: SK-MEL-2 melanoma
[44] = tested on: SK-MEL-28 melanoma
[45] = tested on: SK-MEL-5 melanoma
[46] = tested on: SK-OV-3 ovarian
[47] = tested on: SN12C renal
[48] = tested on: SNB-19 CNS
[49] = tested on: SNB-75 CNS
[50] = tested on: SR leukemia
[51] = tested on: SW-620 colon
[52] = tested on: T-47D breast
[53] = tested on: TK-10 renal
[54] = tested on: U251 CNS
[55] = tested on: UACC-257 melanoma
[56] = tested on: UACC-62 melanoma
[57] = tested on: UO-31 renal

CC(C)OP(=O)(OC(C)C)c1ncc(-c2ccc(C(F)(F)F)cc2)c(NC2CCCCCC2)n1
inactive: GI50 [1] > 10 µM | GI50 [2] > 10 µM | GI50 [3] > 10 µM | GI50 [4] > 10 µM | GI50 [5] > 10 µM | GI50 [6] > 10 µM | GI50 [7] > 10 µM | GI50 [8] > 10 µM | GI50 [9] > 10 µM | GI50 [10] > 10 µM | GI50 [11] > 10 µM | GI50 [12] > 10 µM | GI50 [13] > 10 µM | GI50 [14] > 10 µM | GI50 [15] > 10 µM | GI50 [16] > 10 µM | GI50 [17] > 10 µM | GI50 [18] > 10 µM | GI50 [19] > 10 µM | GI50 [20] > 10 µM | GI50 [21] > 10 µM | GI50 [22] > 10 µM | GI50 [23] > 10 µM | GI50 [24] > 10 µM | GI50 [25] > 10 µM | GI50 [26] > 10 µM | GI50 [27] > 10 µM | GI50 [28] > 10 µM | GI50 [29] > 10 µM | GI50 [30] > 10 µM | GI50 [31] > 10 µM | GI50 [32] > 10 µM | GI50 [33] > 10 µM | GI50 [34] > 10 µM | GI50 [35] > 10 µM | GI50 [36] > 10 µM | GI50 [37] 9.51 µM | GI50 [38] > 10 µM | GI50 [39] > 10 µM | GI50 [40] > 10 µM | GI50 [41] > 10 µM | GI50 [42] > 10 µM | GI50 [43] > 10 µM | GI50 [44] > 10 µM | GI50 [45] > 10 µM | GI50 [46] > 10 µM | GI50 [47] > 10 µM | GI50 [48] > 10 µM | GI50 [49] > 10 µM | GI50 [50] > 10 µM | GI50 [51] > 10 µM | GI50 [52] > 10 µM | GI50 [53] > 10 µM | GI50 [54] > 10 µM | GI50 [55] > 10 µM | GI50 [56] > 10 µM | GI50 [57] > 10 µM
> 10 µM: TGI [1] | TGI [2] | TGI [3] | TGI [4] | TGI [5] | TGI [6] | TGI [7] | TGI [8] | TGI [9] | TGI [10] | TGI [11] | TGI [12] | TGI [13] | TGI [14] | TGI [15] | TGI [16] | TGI [17] | TGI [18] | TGI [19] | TGI [20] | TGI [21] | TGI [22] | TGI [23] | TGI [24] | TGI [25] | TGI [26] | TGI [27] | TGI [28] | TGI [29] | TGI [30] | TGI [31] | TGI [32] | TGI [33] | TGI [34] | TGI [35] | TGI [36] | TGI [37] | TGI [38] | TGI [39] | TGI [40] | TGI [41] | TGI [42] | TGI [43] | TGI [44] | TGI [45] | TGI [46] | TGI [47] | TGI [48] | TGI [49] | TGI [50] | TGI [51] | TGI [52] | TGI [53] | TGI [54] | TGI [55] | TGI [56] | TGI [57]
